Test results published in ChEMBL document CHEMBL1155190, “Identification of a cell-active non-peptide sirtuin inhibitor containing N-thioacetyl lysine” (Bioorg Med Chem Lett, 2009).

Key:
[1] = molecular target: T1, NAD-dependent protein deacetylase sirtuin-1 (Homo sapiens, UniProt Q96EB6); assay: Inhibition of human recombinant SIRT1 after 60 mins by fluorimetric analysis
T1 sequence (Q96EB6 whole entry): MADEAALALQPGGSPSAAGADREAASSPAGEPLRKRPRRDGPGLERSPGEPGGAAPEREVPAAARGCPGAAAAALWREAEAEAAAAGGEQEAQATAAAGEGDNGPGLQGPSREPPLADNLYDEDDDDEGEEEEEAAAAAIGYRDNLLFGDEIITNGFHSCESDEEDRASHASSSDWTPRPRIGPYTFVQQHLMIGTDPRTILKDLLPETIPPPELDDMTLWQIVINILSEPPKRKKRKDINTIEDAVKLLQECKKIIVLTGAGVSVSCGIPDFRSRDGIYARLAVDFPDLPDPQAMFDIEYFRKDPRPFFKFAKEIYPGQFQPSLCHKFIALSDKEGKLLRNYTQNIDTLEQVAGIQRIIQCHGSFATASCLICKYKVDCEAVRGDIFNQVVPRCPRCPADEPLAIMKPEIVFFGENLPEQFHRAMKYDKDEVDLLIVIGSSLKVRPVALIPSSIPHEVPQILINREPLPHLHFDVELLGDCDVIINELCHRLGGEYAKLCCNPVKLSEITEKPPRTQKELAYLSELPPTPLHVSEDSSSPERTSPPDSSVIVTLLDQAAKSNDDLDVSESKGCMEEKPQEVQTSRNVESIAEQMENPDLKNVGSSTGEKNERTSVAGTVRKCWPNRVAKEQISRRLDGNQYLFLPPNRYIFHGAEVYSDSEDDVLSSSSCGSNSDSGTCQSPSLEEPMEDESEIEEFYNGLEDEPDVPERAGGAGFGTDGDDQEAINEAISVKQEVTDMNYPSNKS

[2] = molecular target: T2, NAD-dependent protein deacetylase sirtuin-3, mitochondrial (Homo sapiens, UniProt Q9NTG7); assay: Inhibition of human recombinant SIRT3 after 60 mins by fluorimetric analysis
T2 sequence (Q9NTG7 whole entry): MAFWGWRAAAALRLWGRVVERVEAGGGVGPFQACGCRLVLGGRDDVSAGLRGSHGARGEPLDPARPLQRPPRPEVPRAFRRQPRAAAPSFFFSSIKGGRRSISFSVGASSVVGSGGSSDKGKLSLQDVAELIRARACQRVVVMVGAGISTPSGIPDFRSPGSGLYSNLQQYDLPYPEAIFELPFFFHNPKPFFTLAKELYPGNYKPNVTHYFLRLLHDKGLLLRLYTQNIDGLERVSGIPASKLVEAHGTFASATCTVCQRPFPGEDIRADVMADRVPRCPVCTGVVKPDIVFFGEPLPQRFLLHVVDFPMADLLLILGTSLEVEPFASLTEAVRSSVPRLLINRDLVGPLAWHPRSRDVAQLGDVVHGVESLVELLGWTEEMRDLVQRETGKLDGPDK

[3] = molecular target: T3, NAD-dependent protein deacetylase sirtuin-2 (Homo sapiens, UniProt Q8IXJ6); assay: Inhibition of human recombinant SIRT2 after 60 mins by fluorimetric analysis
T3 sequence (Q8IXJ6 whole entry): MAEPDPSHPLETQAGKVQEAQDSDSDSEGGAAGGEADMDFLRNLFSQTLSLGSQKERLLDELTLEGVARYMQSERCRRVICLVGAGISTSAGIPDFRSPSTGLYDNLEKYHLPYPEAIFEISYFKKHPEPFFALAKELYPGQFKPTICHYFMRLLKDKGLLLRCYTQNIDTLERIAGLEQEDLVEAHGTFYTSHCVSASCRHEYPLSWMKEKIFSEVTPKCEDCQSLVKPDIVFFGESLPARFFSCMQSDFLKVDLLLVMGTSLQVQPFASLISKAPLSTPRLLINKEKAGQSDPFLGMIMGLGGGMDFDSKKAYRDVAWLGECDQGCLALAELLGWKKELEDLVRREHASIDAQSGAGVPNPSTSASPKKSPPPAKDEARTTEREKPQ

**Q.** What does the source list for `CC(=S)NCCCC[C@H](NC(=O)OCc1ccccc1)C(=O)Nc1ccccc1`?
**A.** IC50 [1]: 2.7 µM; IC50 [2]: > 100 µM; IC50 [3]: 23 µM
